Test results taken from the NIST ThermoML archive (doi:10.1021/je300143a).
± gives the expanded uncertainty stated by the source.

Tests used:
[1] = Crystal; DTA
[2] = Molar enthalpy of transition or fusion; conditions: Crystal; DSC

SMILES | Normal melting temperature [1] [°C] | Molar enthalpy of transition or fusion [2] [kJ/mol]
Brc1ccc(NC2=NCCC3(CCCCC3)S2)cc1 [N-(4-bromophenyl)-1-thia-3-azaspiro[5.5]undec-2-en-2-amine] | 175.2 ± 0.5 | 44.3 ± 1.3
Cc1ccc(NC2=NCCC3(CCCCC3)S2)cc1Cl | 149.2 ± 0.5 | 33.2 ± 1.2
c1ccc(NC2=NCCC3(CCCCC3)S2)cc1 [N-phenyl-1-thia-3-azaspiro[5.5]undec-2-en-2-amine] | 113.4 ± 0.5 | 21.6 ± 1.1
CC(=O)c1ccc(NC2=NCCC3(CCCCC3)S2)cc1 | 163.5 ± 0.5 | 32.5 ± 1.2
Cc1ccc(NC2=NCCC3(CCCCC3)S2)cc1 [N-(4-methylphenyl)-1-thia-3-azaspiro[5.5]undec-2-en-2-amine] | 108.2 ± 0.5 | 41.9 ± 1.3

More lines, now with the values ahead:

Normal melting temperature [1] [°C] | Molar enthalpy of transition or fusion [2] [kJ/mol] | SMILES
139.4 ± 0.5 | 42.8 ± 1.3 | CCc1ccc(NC2=NCCC3(CCCCC3)S2)cc1 [N-(4-ethylphenyl)-1-thia-3-azaspiro[5.5]undec-2-en-2-amine]
149.7 ± 0.5 | 32.9 ± 1.2 | FC(F)(F)c1ccc(NC2=NCCC3(CCCCC3)S2)cc1
130.2 ± 0.5 | 27.9 ± 1.2 | O=C(NC1=NCCC2(CCCCC2)S1)c1ccccc1 [N-(1-thia-3-azaspiro[5.5]undec-2-en-2-yl)benzamide]
115.4 ± 0.5 | 29.3 ± 1.2 | COc1ccc(NC2=NCCC3(CCCCC3)S2)cc1 [N-(4-methoxyphenyl)-1-thia-3-azaspiro[5.5]undec-2-en-2-amine]
162.6 ± 0.5 | 27.9 ± 1.2 | Clc1ccc(NC2=NCCC3(CCCCC3)S2)cc1 [N-(4-chlorophenyl)-1-thia-3-azaspiro[5.5]undec-2-en-2-amine]
139.6 ± 0.5 | 29.2 ± 1.2 | CC(C)c1ccc(NC2=NCCC3(CCCCC3)S2)cc1
